Laboratory results taken from BindingDB's records for patent US20250382308 (Nuevolution, 2025).

Columns and labels:
[1] = molecular target: T1, Bromodomain-containing protein 4 [353-454] (Homo sapiens, UniProt O60885); assay: Bromodomain Assay
T1 construct: 353-454
Procedure: (§1) The liganded beads were blocked with excess biotin and washed with blocking buffer (SeaBlock (Pierce), 1% BSA (bovine serum albumin), 0.05% Tween 20, 1 mM DTT (dithiothreitol)) to remove unbound ligand and to reduce non-specific phage binding. […] Test compounds were prepared as 1000× stocks in 100% DMSO and subsequently diluted 1:10 in monoethylene glycol (MEG) to create stocks at 100× the screening concentration (resulting stock solution is 10% DMSO/90% MEG). The compounds were then diluted directly into the assays such that the final concentration of DMSO and MEG were 0.1% and 0.9%, respectively. All reactions were performed in polystyrene 96-well plates in a final volume of 0.135 ml. […] The bromodomain concentration in the eluates was measured by qPCR (quantitative real-time polymerase chain reaction).

[2] = molecular target: T2, Bromodomain-containing protein 4 [58-164] (Homo sapiens, UniProt O60885); assay: Bromodomain Assay
T2 construct: 58-164
Procedure: as §1

[3] = molecular target: cGMP-inhibited 3',5'-cyclic phosphodiesterase 3A (Homo sapiens, UniProt Q14432); assay: Radiometric PDE3A Assay
Sequence of cGMP-inhibited 3',5'-cyclic phosphodiesterase 3A (Q14432 whole entry): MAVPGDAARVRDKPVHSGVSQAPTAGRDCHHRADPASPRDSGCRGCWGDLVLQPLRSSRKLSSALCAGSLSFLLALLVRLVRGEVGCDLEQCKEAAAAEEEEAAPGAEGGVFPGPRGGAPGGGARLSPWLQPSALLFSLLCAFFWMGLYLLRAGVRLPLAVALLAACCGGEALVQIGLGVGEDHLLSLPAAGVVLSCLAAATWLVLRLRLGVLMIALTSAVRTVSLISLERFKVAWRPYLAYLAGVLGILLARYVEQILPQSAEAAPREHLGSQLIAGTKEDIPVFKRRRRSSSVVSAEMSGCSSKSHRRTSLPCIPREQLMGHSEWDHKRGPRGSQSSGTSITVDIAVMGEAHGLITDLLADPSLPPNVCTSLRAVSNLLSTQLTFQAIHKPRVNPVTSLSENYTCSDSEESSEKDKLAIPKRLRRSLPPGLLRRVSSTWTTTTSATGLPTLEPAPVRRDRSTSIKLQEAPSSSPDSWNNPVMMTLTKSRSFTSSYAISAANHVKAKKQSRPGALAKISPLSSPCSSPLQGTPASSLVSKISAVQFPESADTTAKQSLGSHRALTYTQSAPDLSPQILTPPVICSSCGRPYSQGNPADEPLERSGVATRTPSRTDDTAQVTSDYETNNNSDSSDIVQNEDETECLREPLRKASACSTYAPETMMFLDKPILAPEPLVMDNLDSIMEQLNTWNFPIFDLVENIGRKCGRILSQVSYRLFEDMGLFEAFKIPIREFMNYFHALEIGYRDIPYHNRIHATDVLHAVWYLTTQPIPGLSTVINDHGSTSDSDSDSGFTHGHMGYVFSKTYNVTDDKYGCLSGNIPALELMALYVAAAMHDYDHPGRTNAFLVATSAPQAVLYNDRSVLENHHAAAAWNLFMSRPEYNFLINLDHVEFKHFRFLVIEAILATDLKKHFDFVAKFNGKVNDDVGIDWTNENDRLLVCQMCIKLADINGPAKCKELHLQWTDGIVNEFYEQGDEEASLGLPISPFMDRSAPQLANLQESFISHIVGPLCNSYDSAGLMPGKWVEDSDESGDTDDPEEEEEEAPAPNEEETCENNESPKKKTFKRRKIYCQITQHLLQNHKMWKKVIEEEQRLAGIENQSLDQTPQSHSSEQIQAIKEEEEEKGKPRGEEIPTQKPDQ
Procedure: Partially purified human recombinant phosphodiesterase (PDE3A) was obtained by cloning cDNA and expressing in S. frugiperda insect cells using a baculovirus expression system. Cells were harvested from culture by centrifuging at 400×g for 5 minutes. Cell pellet was resuspended in 20 ml of RIPA Buffer (150 mM NaCl, 10 mM Tris, 0.1% NP-40, pH8.3), 4 ml/200 ml of culture, plus protease inhibitors (100 μl/10 ml) and incubated on ice for 10-20 minutes then spun at 3500×g for 10 minutes at 4° C. Supernatant was kept and the pellet thrown away. Tritium-labeled cyclic AMP was hydrolysed to 5′-AMP by PDE3A. The 5′-AMP was then further hydrolysed to adenosine by nucleotidase in snake venom. An anion-exchange resin binds all charged nucleotides and leaves [3H]adenosine as the only labeled compound to be counted by liquid scintillation. The radiometric assay method is a modification of the two-step method of Thompson and Appleman [Biochemistry 10; 311-316; 1971], adapted for a 96 well plate format. 50 μl of diluted PDE3A was incubated with 50 μl of [3H]-CAMP (specific activity 25 Ci/mmol) and 11 μl of 50% DMSO (or compound dilution) for 20 minutes at 30° C. […] 50 μl of supernatant was removed and added to 200 μl of MicroScint-20 in white plates (Greiner 96-well Optiplate) and shaken for 30 minutes before reading on Perkin Elmer TopCount Scintillation Counter.

| SMILES | Kd [1] [nM] | Kd [2] [nM] | IC50 [3] [nM] |
| --- | --- | --- | --- |
| COc1cc(NC(=O)c2cc3c(nc2N2CCC(F)(F)C2)COC3)cc2c(C)cc(=O)[nH]c12 [US20250382308, Example 16] | 900 | 21 |  |
| CCN(CC)c1nc2c(cc1C(=O)Nc1cc(OC)c3[nH]c(=O)cc(C)c3c1)COC2 [US20250382308, Example 27] | 600 | 25 | > 10000 |
